This is an account of results in patent US7589092B2, “Prodrugs of heteroaryl compounds” (Koronis Pharmaceuticals, Incorporated, priority 2003, dated 2009).

The test system of one series is HIV. The conditions noted are these: Bouchard et al.; cited from earlier work.
Series [1] in a line: Bioavailability / pharmacokinetic study in dogs. The class given is in vivo, Canis familiaris. As to conditions: dog. An excerpt: This study tested the bioavailability of different test compounds in dogs, by intravenous or oral gavage administration, at prescribed dose levels. The animals tested in this study were Canis familiaris, from Harlan Sprague Dawley (Indianapolis, Ind.). Four dogs (2 males and 2 females), with an average age of seven months, were included in each test group. The dogs were identified by ear tattoos, and given a fourteen day acclimatization period prior to the commencement of testing. Dogs were group housed but separated by sex. The animal room environment was controlled and monitored daily. The temperature ranged from 18 to 29° C. and the relative humidity ranged from 30%-70%. The photocycle was 12 hours light and 12 hours dark. All animals were submitted to a general physical examination and only those found healthy were admitted for the study. All selected animals were given two days to adjust to laboratory conditions before the study began. Teklad Dog Diet was fed twice daily and water was constantly available to the dogs throughout the acclimatization and study periods. Twenty-four hours prior to the initiation of the study, animals were randomly selected into two groups with 1 male and 1 female in each group. […] Blood was collected from the v. cephalica antebrachii of each of the two animals prior to study initiation, at thirty minutes and at 1, 2, 4, and 12 hours after dosing. […] IV dosages of DHAdC, as well as oral dosages of prodrugs […] C9-DHAdC were recorded. The dogs were administered 50 mg/kg DHAdC or DHAdC equivalent in the case of prodrugs. The maximum concentration (Cmax), clearance (AUC∞), half-life (T1/2), and % Oral Bioavailability were recorded and are presented in Table 2: […]

For series [2] the following is noted: test concentration 100 um, RT, 60 minutes equilibration. As for the experimental part: The compounds were first dissolved in a 60% methanol/40% water (v/v) solution containing 1% DMSO and brought to a concentration of 100 μM. The optimal detection wavelength was determined and calibration studies were performed with the solution. After calibration, the compounds were placed into n-octanol-PBS buffer at pH 7.4 at RT. The mixture was shaken and allowed to equilibrate for 60 minutes. The amount of compound in the PBS buffer phase was then determined by HPLC/UV-Vis. The amount of compound in n-octanol was determined by subtracting […]. This experiment was conducted for three samples. These three samples were then each corrected for volume and the results were averaged. Log D was calculated as the Log10 of the amount of compound in the n-octanol phase divided by the amount of compound in the buffer phase.
Lipophilicity is a major structural factor that influences the pharmacokinetic and pharmacodynamic behavior of compounds. In this assay, prodrugs C7-DHAdC, C8-DHAdC, and C9-DHAdC were partitioned between n-octanol and phosphate buffered saline (PBS).

A short description of series [3]: Bioavailability / pharmacokinetic study in rats. The series is classed as in vivo. As to conditions: rat. An excerpt:
This study tested the bioavailability of different test compounds in rats, by oral gavage administration, at prescribed dose levels. The animals tested in this study were Rattus norvegicus, CD strain, from Charles River Canada (Montreal, Canada). Six males were included in each test group. Their weight ranged from 200 to 250 grams before fasting. […] Rats were individually housed in Nalgene rat cages with stainless steel covers. The animal room environment was controlled and monitored daily. The temperature ranged from 18 to 26° C. and the relative humidity ranged from 30%-70%. The photocycle was 12 hours light and 12 hours dark. All animals were submitted to a general physical examination and only those found healthy were admitted for the study. All selected animals were given two days to adjust to laboratory conditions before the study began. Teklad rodent Diet and water were constantly available to the rats throughout the acclimatization and study periods. Forty-eight hours prior to the initiation of the study, animals were randomly selected and two subsets of 3 male rats per group were formed. Due to the large volume of blood taken, collections will be done by alternating timepoints between subsets. All animals were fasted for twelve hours prior to the initiation of the study. […] Blood was collected from the orbital sinus of animals from each group at thirty minutes and at 1, 2, 4, and 12 hours after dosing. At each blood collection time point, three rats per group were bled. […] Oral and IV dosages of DHAdC, as well as oral dosages of prodrugs C7-DHAdC and C9-DHAdC were recorded. The rats were administered 100 mg/kg DHAdC or DHAdC equivalent in the case of prodrugs. The maximum concentration (Cmax), clearance (AUC∞), half-life (T1/2), and % Oral Bioavailability were recorded and are presented in Table 1: […]

For series [4] the following is noted: deamination product of 5-aza-dC; Momparler et al.; cited from earlier work.
[5] abbreviates: oral gavage, 50 mg/kg DHAdC equivalent.
Where [6] appears, read: male, CD, blood, IV, 100 mg/kg DHAdC.
Where [7] appears, read: male, CD, blood, oral gavage, 100 mg/kg DHAdC or DHAdC equivalent.
Setting [8] is: both sexes, blood, IV, 50 mg/kg DHAdC.
[9] abbreviates: oral gavage, 100 mg/kg DHAdC or DHAdC equivalent.

On to `Nc1ncn([C@H]2C[C@H](O)[C@@H](CO)O2)c(=O)n1` [Compound 5-aza-dC, 5-aza-2′-deoxycytidine], for which the “HIV replication in vitro” value in the series with HIV was “inhibit HIV replication in vitro”.
For orientation: Cmax means the highest concentration seen after dosing. In the case of `CCCCCCCCOC(=O)NC1=NC(=O)N([C@H]2C[C@H](O)[C@@H](CO)O2)CN1` [Compound C8-DHAdC, N^4-Octyloxycarbonyl-β-2′-deoxy-5,6-dihydro-5-azacytidine], in series [1] (setting [5]), the “AUC∞” value is 17,845 ng-hr/mL, the highest concentration (Cmax) was 5,172 ng/mL, the Oral bioavailability was 11% and the T1/2 is 2.8 h. The “log D n-Octanol PBS pH 7.4” value in series [2] is 2.56.
The AUC(0-inf) is total exposure, with the tail of the curve extrapolated. A word on the half-life: it is how long it takes for the measured level to halve. In general, bioavailability refers to dose-corrected exposure relative to a reference, in per cent. Regarding `NC1=NC(=O)N([C@H]2C[C@H](O)[C@@H](CO)O2)CN1` [DHAdC, 5,6-dihydro-5-aza-2′-deoxycytidine], the AUC(0-inf) in series [3] (setting [6]) worked out at 75000 ng·h/mL; in series [3] (setting [7]) it was 8540 ng·h/mL; in series [1] (setting [8]), 156000 ng·h/mL. Moreover, the half-life was 1.8 h in series [3] (setting [6]), 0.8 h in series [3] (setting [7]) and 2.1 h in series [1] (setting [8]). The Cmax in series [3] (male, CD, blood, IV, 100 mg/kg DHAdC, read-out: Cmax) came to 40000 ng/mL; in series [3] (male, CD, blood, oral gavage, 100 mg/kg DHAdC or DHAdC equivalent, read-out: Cmax), 1860 ng/mL; in series [1] (both sexes, blood, IV, 50 mg/kg DHAdC, read-out: Cmax), 76300 ng/mL. Further, the bioavailability in series [3] (setting [7]) turned out to be 11%.
With `CCCCCCCOC(=O)NC1=NC(=O)N([C@H]2C[C@H](O)[C@@H](CO)O2)CN1` [Compound C7-DHAdC, N^4-Heptyloxycarbonyl-β-2′-deoxy-5,6-dihydro-5-azacytidine], in series [3] (setting [9]), the “AUC∞” value was 32,101 ng-hr/mL, the Cmax was 5,577 ng/mL, the Oral bioavailability was found to be 43% and the T1/2 worked out at 3.9 h. For the same molecule, in series [1] (setting [5]), the “AUC∞” value was 59,377 ng-hr/mL, the Cmax was 11,282 ng/mL, the Oral bioavailability is reported as 51% and the T1/2 came out at 2.1 h. The “log D n-Octanol PBS pH 7.4” value in series [2] was 2.04.
Take `O=c1ncn([C@H]2C[C@H](O)[C@@H](CO)O2)c(=O)[nH]1` [Compound 5-aza-dU, 5-aza-2′-deoxyuridine]: the antineoplastic activity result in series [4] is recorded as “loss of antineoplastic activity”.
For the molecule `CCCCCCCCCOC(=O)NC1=NC(=O)N([C@H]2C[C@H](O)[C@@H](CO)O2)CN1` [Compound C9-DHAdC, N^4-Nonyloxycarbonyl-β-2′-deoxy-5,6-dihydro-5-azacytidine], in series [3] (setting [9]), the “AUC∞” value is on record as 26,472 ng-hr/mL, the Cmax is listed as 5,550 ng/mL, the Oral bioavailability was determined as 35% and the T1/2 was found to be 3.6 h. In series [1] (setting [5]), the “AUC∞” value is 54,540 ng-hr/mL, the Cmax is given as 8,932 ng/mL, the Oral bioavailability turned out to be 36% and the T1/2 is 2.2 h. Also, the “log D n-Octanol PBS pH 7.4” value in series [2] turned out to be 3.16.
